Assay results published in patent US4973587A, “3-arylcarbonyl-1-aminoalkyl-1H-indole-containing antiglaucoma method” (Sterling Drug Inc., priority 1990, dated 1990).

What follows are compounds tested on mouse vas deferens (assay: mouse vas deferens test (MVD)). Details: Mus musculus, inhibition of contractions in mouse vas deferens preparation in vitro; active at 5.0 μM or less.
Format: cell-based
From the text: Med. Assoc. 217, 1392 (1971)]. […] Opth 7, 921-923 (1975); Green and Pederson, Effect of delta-9 Tetrahydrocannabinol on Aqueous Dynamics and Ciliary Body Permeability in the Rabbit Eye., Exptl. Eye Research 15, 499-507 (1973); Colasanti, Craig and Allara, Intraocular Pressure, Ocular Toxicity and Neurotoxicity after Administration of Cannabinol or Cannibigerol, Exptl. Eye Research 39, 252-259 (1984)]. Similarly, synthetic cannabinoids also reduce intraocular pressure [Green, Symunds, Oliver and Elijah, Intraocular Pressure Following Systemic Administration of Cannabinoids, Curr. Eye Research 2, 247-253 (1982); Tiedeman, Shields, Weber, Crow, Coccetto, Harris and Howes, Ophthalmology., 88, 270-277 (1981); Colasanti et al., supra]. Cannabinoid receptor binding sites can be defined as those to which radio-labelled 4-(1,1-dimethylheptyl)-2,3'-dihydroxy-6'alpha-(3-hydroxypropyl)-1',2',3',4',5',6'-hexahydrobiphenyl (CP 55940) binds in a specific and saturable manner, and the binding sites are heterogeneously distributed in the brain [Devane, Dysarz, Johnson, Melvin and Howlett, Determination and Characterization of a Cannabinoid Receptor in Rat Brain, Molecular Pharm. 34, 605-613 (1988)]. Natural and synthetic cannabinoids and representative examples of the compounds of the present invention bind to CP 55940 binding sites. […] It is believed that agonist activity at the cannabinoid receptor mediates the anti-glaucoma actions of cannabinoids, and that agonist activity at this receptor correlates with ocular pressure lowering actions in man.
`Cc1c(C(=O)c2coc3ccccc23)c2ccccc2n1CCN1CCOCC1` [Example 2N] gave an IC50 of 52 nM. In the case of `Cc1ccc(C(=O)c2c(C)n(CCN3CCOCC3)c3ccccc23)c2ccccc12` [Example 2CA], the IC50 is reported as 9 nM. Work on `Cc1c(C(=O)c2cc3ccc4cccc5ccc(c2)c3c45)c2ccccc2n1CCN1CCOCC1` [Example 2CG] yielded an IC50 of 40 nM. Compound `Cc1c(C(=O)c2ccc3ccccc3n2)c2ccccc2n1CCN1CCOCC1` [Example 2BD] has an IC50 of 99 nM. `Cc1c(C(=O)c2ccccc2Cl)c2ccccc2n1CCN1CCOCC1` [Example 2CH] was tested, and the IC50 was 91 nM. `N#Cc1ccc(C(=O)c2cn(CCN3CCOCC3)c3ccccc23)c2ccccc12` [Example 7D] showed an IC50 of 5 nM. `Cc1c(C(=O)c2ccc3cccnc3c2)c2ccccc2n1CCN1CCOCC1` [Example 2BA] was tested, and the IC50 was 93 nM. `COc1ccc(C(=O)c2cn(CCCN3CCOCC3)c3ccc(F)cc23)cc1` [Example 1AX] was tested, and the IC50 was > 10000 nM. Work on `O=C(c1cccc2ccccc12)c1cn(CCN2CCOCC2)c2ccc(Br)cc12` [Example 1BW] yielded an IC50 of 20 nM. Work on `COc1ccc(C(=S)c2c(C)n(CCN3CCOCC3)c3ccccc23)cc1` [Example 9, 2-methyl-3-(4-methoxyphenylthiocarbonyl)-1-[2-(4-morpholinyl)-ethyl]-1H-indole] yielded an IC50 of 110 nM. Compound `Cc1c(C(=O)c2cccc3ccccc23)c2ccccc2n1C(C)CN1CCOCC1` (stereo not shown) [Example 2Y] has an IC50 of 10 nM. Compound `COc1ccc(C(=O)c2cn(C(C)CN3CCOCC3)c3ccccc23)cc1` (stereo not shown) [Example 2AU] has an IC50 of 3700 nM. For `Cc1c(C(=O)c2cccc(F)c2)c2ccccc2n1CCN1CCOCC1` [Example 1U], the IC50 was 1900 nM. `Cc1c(C(=O)c2cccc3ccccc23)c2ccccc2n1CCN1CCOCC1C` (stereo not shown) [Example 3K] was tested, and the IC50 was 30 nM. `Cc1cccc2c(C(=O)c3ccccc3)cn(C(C)CN3CCOCC3)c12` (stereo not shown) [Example 2H] showed an IC50 of 177 nM. `COc1ccc(C(=O)c2cn(CCCN3CCOCC3)c3ccccc23)cc1` [Example 1BZ] was tested, and the IC50 was 4300 nM. Compound `COc1ccc(C(=O)c2c(C)n(CCN3CCOCC3)c3ccccc23)cc1OC` [Example 1AB] has an IC50 of 68 nM. In the case of `COc1ccc(C(=O)c2c(C)n(C(C)CN3CCOCC3)c3ccccc23)cc1` (stereo not shown) [Example 2G], the IC50 is reported as 1300 nM. `O=C(c1ccc2ccoc2c1)c1cn(CCN2CCOCC2)c2ccccc12` [Example 2BK] gave an IC50 of 40 nM. Work on `O=C(c1ccccc1F)c1cn(CCN2CCOCC2)c2ccccc12` [Example 2BQ] yielded an IC50 of 500 nM. `COc1ccc(C(=O)c2cn(CCN3CCOCC3)c3c(O)cccc23)cc1` [Example 5C, 7-hydroxy-3-(4-methoxybenzoyl)-1-[2-(4-morpholinyl)ethyl]-1H-indole] showed an IC50 of 400 nM. Work on `Cc1cccc(C)c1C(=O)c1c(C)n(CCN2CCOCC2)c2ccccc12` [Example 1BO] yielded an IC50 of 1600 nM. `Cc1c(C(=O)c2cccc3cccnc23)c2ccccc2n1CCN1CCOCC1` [Example 2BB] showed an IC50 of 129 nM. `CC(CN1CCOCC1)n1cc(C(=O)c2ccccc2F)c2ccccc21` (stereo not shown) [Example 2E] gave an IC50 of 2400 nM. With `Cc1c(C(=O)c2cc3ccccc3o2)c2ccccc2n1CCN1CCOCC1` [Example 1P] the IC50 was 320 nM. With `Cc1c(C(=O)c2cccc3c2OCO3)c2ccccc2n1CCN1CCOCC1` [Example 1BJ] the IC50 was 310 nM. In the case of `COc1ccc(C(=O)c2c(C)n(CCCN3CCCC3)c3ccccc23)cc1` [Example 1CJ], the IC50 is reported as > 10000 nM. Work on `COc1ccc(C(=O)c2c(C)n(CCN3CCOCC3)c3c(OC)cccc23)cc1` [Example 1K] yielded an IC50 of 260 nM. For `O=C(c1cccc2ccccc12)c1cn(CCCN2CCOCC2)c2ccccc12` [Example 2AX], the IC50 was 10 nM. `O=C(c1cn(CCN2CCOCC2)c2ccccc12)C1CCCc2ccccc21` (stereo not shown) [Example 2BP] showed an IC50 of 10 nM. `Cc1c(C(=O)c2c(F)cccc2F)c2ccccc2n1CCN1CCOCC1` [Example 2AG] gave an IC50 of 370 nM. With `O=C(c1cccc2ccccc12)c1cn(CCN2CCOCC2)c2ccc(F)cc12` [Example 1CE] the IC50 was 7 nM. `Cc1ccc(C(=O)c2cn(CCN3CCOCC3)c3ccccc23)c2ccccc12` [Example 2CB] showed an IC50 of 3 nM. With `Cc1c(C(=O)c2ccc(N)cc2)c2ccccc2n1CCN1CCOCC1` [Example 4B, 2-methyl-3-(4-aminobenzoyl)-1-[2-(4morpholinyl)ethyl]-1H-indole] the IC50 was 520 nM. Compound `Cc1ccccc1C(=O)c1c(C)n(CCN2CCOCC2)c2ccccc12` [Example 2K] has an IC50 of 710 nM. Work on `COc1ccccc1C(=O)c1c(C)n(CCN2CCOCC2)c2ccccc12` [Example 1R] yielded an IC50 of 90 nM. For `O=C(c1cccc2cc(Cl)ccc12)c1cn(CCN2CCOCC2)c2ccccc12` [Example 2CE], the IC50 was 88 nM. Compound `Cc1ccc(C(=O)c2c(C)n(CCN3CCOCC3)c3ccccc23)cc1` [Example 1Z] has an IC50 of 440 nM. `COc1ccc(C(=O)c2c(C)n(CCN3CCOCC3)c3c(F)cccc23)cc1` [Example 1J] gave an IC50 of 73 nM. In the case of `COc1cc(OC)cc(C(=O)c2c(C)n(CCN3CCOCC3)c3ccccc23)c1` [Example 1BQ], the IC50 is reported as 420 nM. Compound `COc1ccc(C(=O)c2c(C)n(CCN3CCOCC3)c3c(C)cccc23)cc1` [Example 1D] has an IC50 of 178 nM. `O=C(c1cccc2occc12)c1cn(CCN2CCOCC2)c2ccccc12` [Example 2BJ] showed an IC50 of 7 nM. Work on `COc1ccc(C(=O)c2c(C)n(CCN3CCCC3)c3ccccc23)cc1` [Example 1CI] yielded an IC50 of 240 nM. Compound `Cc1ccc2c(C(=O)c3cccc4ccccc34)c(C)n(CCN3CCOCC3)c2c1` [Example 1BV] has an IC50 of 15 nM. `Cc1c(C(=O)c2cccc(O)c2O)c2ccccc2n1CCN1CCOCC1` [Example 5A, 2-methyl-3-(2,3-dihydroxybenzoyl)-1-[2-(4-morpholinyl)ethyl]-1H-indole] showed an IC50 of 180 nM. Compound `O=C(c1cn(CCN2CCOCC2)c2ccccc12)c1cccc2ccoc12` [Example 2BL] has an IC50 of 4 nM. `Cc1c(C(=O)c2ccc(Cl)cc2)c2ccccc2n1CCN1CCOCC1` [Example 1AG] gave an IC50 of 560 nM. Work on `COc1ccc(C(=O)c2c(C)n(CCN3CCOCC3)c3ccccc23)c2ccccc12` [Example 1AV] yielded an IC50 of 26 nM. For `COc1ccc(C(=O)c2c(C)n(CCN3CCOCC3)c3cc(Cl)ccc23)cc1` [Example 1L], the IC50 was 540 nM. With `O=C(c1ccc(-n2ccnc2)c2ccccc12)c1cn(CCN2CCOCC2)c2ccccc12` [Example 7C] the IC50 was 8 nM. `O=C(c1ccc2ncccc2c1)c1cn(CCN2CCOCC2)c2ccccc12` [Example 2BF] gave an IC50 of 142 nM. Compound `COc1cccc(C(=O)c2c(C)n(CCN3CCOCC3)c3ccccc23)c1OC` [Example 1BP] has an IC50 of 260 nM. `COc1ccc2cc(C(=O)c3c(C)n(CCN4CCOCC4)c4ccccc34)ccc2c1` [Example 1AW] gave an IC50 of 460 nM. `Cc1c(C(=O)Cc2ccccc2)c2ccccc2n1CCN1CCOCC1` [Example 2BM] showed an IC50 of 174 nM. Work on `COc1ccc(C=CC(=O)c2c(C)n(CCN3CCOCC3)c3ccccc23)cc1` [Example 2BN] yielded an IC50 of 138 nM. `Cc1c(C(=O)c2ccc(-n3ccnc3)c3ccccc23)c2ccccc2n1CCN1CCOCC1` [Example 7B] gave an IC50 of 5 nM. In the case of `Cc1c(C(=O)c2cccc3ccccc23)c2ccccc2n1CCN1CCCCC1` [Example 3A, 2-methyl-3-(1-naphthylcarbonyl)-1-[2-(1-piperidinyl)ethyl]-1H-indole], the IC50 is reported as 66 nM. For `Cc1c(C(=O)c2ccc(Cl)cc2Cl)c2ccccc2n1CCN1CCOCC1` [Example 2CF], the IC50 was 200 nM. With `COc1cc(C(=O)c2c(C)n(CCN3CCOCC3)c3ccccc23)cc(OC)c1OC` [Example 1CB] the IC50 was 90 nM. With `O=C(c1cccc2ccccc12)c1c(Cl)n(CCN2CCOCC2)c2ccccc12` [Example 2BG] the IC50 was 6 nM. `O=C(c1cccc2ccccc12)c1cn(CCN2CCOCC2)c2ccc(O)cc12` [Example 5B, 5-hydroxy-3-(1-naphthylcarbonyl)-1-[2-(4-morpholinyl)ethyl]-1H-indole] showed an IC50 of 20 nM. In the case of `Cc1c(C(=O)c2ccc(C#N)c3ccccc23)c2ccccc2n1CCN1CCOCC1` [Example 7A, 2-methyl-3-(4-cyano-1-naphthylcarbonyl)-1-[2-(4-morpholinyl)ethyl]-1H-indole], the IC50 is reported as 14 nM. Work on `Cc1c(C(=O)c2cccc3ccoc23)c2ccccc2n1CCN1CCOCC1` [Example 2BI] yielded an IC50 of 17 nM. `O=C(c1ccccc1)c1cn(CCN2CCOCC2)c2ccccc12` [Example 1AF] was tested, and the IC50 was 1100 nM. `Cc1c(C(=O)c2ccc(Br)c3ccccc23)c2ccccc2n1CCN1CCOCC1` [Example 2AT] gave an IC50 of 34 nM. Work on `COc1ccc(C(=O)c2c(C)n(CCN3CCOCC3)c3ccccc23)c(F)c1` [Example 2AD] yielded an IC50 of 180 nM. `COc1ccc(C(=O)c2cn(CCCN3CCOCC3)c3c(C)cccc23)cc1` [Example 1CD] showed an IC50 of 40 nM. With `O=C(c1ccc2occc2c1)c1cn(CCN2CCOCC2)c2ccccc12` [Example 2BR] the IC50 was 30 nM. With `Cc1c(C(=O)c2cccc(F)c2)c2ccccc2n1C(C)CN1CCOCC1` (stereo not shown) [Example 2AM] the IC50 was 860 nM. `COc1ccc(C(=O)c2c(Cl)n(CCN3CCOCC3)c3ccccc23)cc1` [Example 2Q] was tested, and the IC50 was 176 nM.

Same assay, conditions: inhibition of contractions in mouse vas deferens preparation in vitro; active at 5.0 μM or less
`Cc1c(C(=O)c2ccc3cccnc3c2)c2ccccc2n1CCN1CCOCC1` [Example 2BH] gave an IC50 of 88 nM. `Cc1c(C(=O)c2ccccc2F)c2ccccc2n1C(C)CN1CCOCC1` (stereo not shown) [Example 2C] showed an IC50 of 490 nM. With `O=C(c1ccccc1)c1cn(CCN2CCOCC2)c2ccccc12` [Example 1CH] the IC50 was 1600 nM.
